Results: PMC3983056 (PLoS Pathogens, 2014)
Values joined by “and” are separate entries in the source; they are usually repeats but may differ in a detail not shown here. Equal entries are not always repeated.

Legend:
[1] = molecular target: T1, human HDAC-11 (Homo sapiens, UniProt Q96DB2); assay: HDAC inhibition assay; type: biochemical
T1 construct: purchased Reaction Biology Corporation (Malvern, PA)
Description: Determination of HDACi potency against individual HDAC enzymes was performed at Reaction Biology Corporation (Malvern, PA). In brief, human HDAC-1 to -11 enzymes were incubated with serial dilutions of HDACi and fluorogenic peptide substrates (50 µM) in a 96-well format assay. […] Fluorogenic peptide Boc-Lys(trifluoroacetyl)-AMC was used as a substrate for HDAC enzymes 4, 5, 7, and 9.

[2] = test system: latent HIV in resting CD4 T cells from HIV-infected patients on suppressive cART; assay: Ex vivo release of extracellular HIV RNA into culture supernatants, resting CD4 T cells; type: cell-based
Description: HIV-infected patients participating in the study were selected based on sustained plasma viral load suppression (<50 copies/ml for >12 months), CD4 counts (>350 cells/µL), and absence of co-infection with hepatitis B or C virus (Supplementary Table S1). Clinical laboratory results were reconfirmed 2 weeks before leukapheresis or blood draw. Leukapheresis was conducted for 3–4 hours, and samples were processed within 2 hours after collection. The leukapheresis product was diluted 1∶1 with PBS and layered over Ficoll for isolation of PBMCs. […] Resting CD4 T cells were isolated by first enriching total CD4 T cells (StemCell Technologies) and subsequently depleting HLA-DR-, CD25-, and CD69-positive cells via negative selection (Miltenyi Biotec, Auburn, CA).
To assess HIV activation by HDACi, up to 5 million CD4 T cells were plated in 24-well plates in 2.5 ml of media, supplemented with antiretrovirals (ARVs) (100 nM elvitegravir and 100–300 nM efavirenz) for the entire duration of culture incubation. HDACi were added at specified concentrations on day 0 and cells or culture supernatants were harvested for the analysis of HIV RNA at the indicated time points (6–48 hours or 6–7 days, respectively). For HDACi pulse treatment, cultures were washed twice using ARV-containing media at 4 or 24 hours after addition of HDACi and incubated with ARVs until harvest. To measure HIV RNA levels, 1 ml of culture supernatant was analyzed by a robotic COBAS AmpliPrep/TaqMan system (Roche Diagnostics, Indianapolis, IN), which extracts total nucleic acid and quantifies HIV RNA in copies per milliliter using the HIV-1 Test, v2.0 kit (Roche Diagnostics). For the measurement of cell-associated HIV RNA levels, cells were washed with PBS, counted, and lysed (Qiagen RLT buffer, 400 µl for every 2 million cells; Qiagen, Venlo, Netherlands). Lysates were filtered through a Qiashredder (Qiagen). Total RNA was prepared from the lysates (400 µl) using a robotic system (QIAsymphony, Qiagen) that incorporates a DNase I digestion step to eliminate cellular DNA. The resulting total RNA was eluted with 200 µl of buffer, diluted to 1 ml with nuclease-free water, and analyzed by COBAS using the HIV-1 Test v2.0 kit. Preparations of both cell-associated RNA and supernatant total nucleic acids were tested for potential contamination with HIV DNA and/or host DNA by performing the PCR amplification in the presence and absence of reverse transcriptase and by a detection of GAPDH-encoding host DNA sequence.
HIV RNA-induction experiments were conducted using 5 to 6 replicates for every experimental condition, including vehicle-treated controls. Fold induction in HIV RNA levels was calculated as a ratio of mean signals from compound-treated and vehicle (DMSO)-treated control samples from the same donor under identical conditions. […] For experiments using blood-derived resting CD4 T cells, culture supernatants from 3 replicate wells were combined and analyzed using the COBAS system.

[3] = Human serum binding by equilibrium dialysis, HPLC/mass spectrometry; type: in vitro ADME; settings: read-out: Human serum binding (free fraction)
Text: (DOCX) Click here for additional data file.

T1 sequence (Q96DB2 whole entry): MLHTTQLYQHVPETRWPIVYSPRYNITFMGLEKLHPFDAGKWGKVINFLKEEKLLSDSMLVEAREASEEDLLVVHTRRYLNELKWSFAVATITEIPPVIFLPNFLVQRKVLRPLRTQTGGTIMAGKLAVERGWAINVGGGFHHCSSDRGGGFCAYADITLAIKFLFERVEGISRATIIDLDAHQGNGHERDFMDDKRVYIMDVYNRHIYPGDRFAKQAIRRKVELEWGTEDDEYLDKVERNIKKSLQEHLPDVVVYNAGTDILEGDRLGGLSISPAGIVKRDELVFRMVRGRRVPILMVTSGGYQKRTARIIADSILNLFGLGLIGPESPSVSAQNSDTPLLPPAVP

C/C=C1\NC(=O)[C@H]2CSSCC/C=C/[C@H](CC(=O)N[C@H](C(C)C)C(=O)N2)OC(=O)[C@H](C(C)C)NC1=O [RMD, romidepsin]
IC50 [1]: 0.407 nM | HIV RNA ([2]; Figure 3C, 2.5 nM RMD, 7 days, one value per donor): 1205 copies/mL and 20 copies/mL and 2949 copies/mL and 560 copies/mL and 341 copies/mL and 86 copies/mL and 137 copies/mL | donors with induced HIV RNA release ([2]; resting CD4 T cells, 2.5 nM RMD continuous 6 days): 6 of 8 | HIV RNA in culture supernatants, longitudinal samples ([2]; resting CD4 T cells, 7 days continuous RMD, high-responding patient, three longitudinal samples): robust and reproducible dose-dependent HIV RNA increase | longitudinal samples with concentration-dependent effect on viral expression ([2]; resting CD4 T cells, 7 days continuous RMD, low-responding patient): 2 of 3 | fraction unbound [3]: 0.08
